Assay results reported in ChEMBL document CHEMBL1201862, “PubChem BioAssay data set” (2004).
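Interpolation was linear, between the two tested concentrations surrounding the appropriate level; five concentrations were tested over 48 hours in 96-well plates. GI50 marks 50% less growth.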 Calls of active or inactive are those of the source. No stated cut-off is given here; in the data, active = GI50 up to about 1.1 µM and inactive = higher.

Assays:
Experiment in all cases: NCI anticancer screen, dose series, 48 h
[1] = tested on: A498
[2] = tested on: ACHN
[3] = tested on: BT-549
[4] = tested on: CAKI-1
[5] = tested on: Hs-578T
[6] = tested on: M14
[7] = tested on: MCF7
[8] = tested on: Malme-3M
[9] = tested on: NCI-H460
[10] = tested on: NCI-H522
[11] = tested on: OVCAR-3
[12] = tested on: OVCAR-4
[13] = tested on: PC-3
[14] = tested on: RPMI-8226
[15] = tested on: SF-539
[16] = tested on: SK-MEL-2
[17] = tested on: SW-620
[18] = tested on: TK-10
[19] = tested on: UACC-62
[20] = tested on: HL-60

Row | SMILES | GI50 [1] | GI50 [2] | GI50 [3] | GI50 [4] | GI50 [5] | GI50 [6] | GI50 [7] | GI50 [8] | GI50 [9] | GI50 [10] | GI50 [11] | GI50 [12] | GI50 [13] | GI50 [14] | GI50 [15] | GI50 [16] | GI50 [17] | GI50 [18] | GI50 [19] | GI50 [20]
1 | Cn1c2ccccc2c2c3c(=O)[nH][nH]c(=O)c3c3c4ccccc4n(C)c3c21 | > 100 µM (inactive) | > 100 µM (inactive) | > 100 µM (inactive) | > 100 µM (inactive) | > 100 µM (inactive) | > 84.5 µM (inactive) | 0.133 µM (active) | > 100 µM (inactive) | 16.9 µM (inactive) | 1.09 µM (active) | > 100 µM (inactive) | > 64.3 µM (inactive) | > 100 µM (inactive) | 13.6 µM (inactive) | > 100 µM (inactive) | > 100 µM (inactive) | > 100 µM (inactive) | > 100 µM (inactive) | > 100 µM (inactive) | –
2 | CC(=N\N=C\c1ccccn1)/C(C)=N/N=C(C)/C(C)=N/N=C/c1ccccn1 | > 100 µM (inactive) | > 100 µM (inactive) | > 100 µM (inactive) | > 100 µM (inactive) | > 100 µM (inactive) | > 100 µM (inactive) | > 100 µM (inactive) | > 100 µM (inactive) | > 100 µM (inactive) | > 100 µM (inactive) | > 100 µM (inactive) | > 100 µM (inactive) | > 100 µM (inactive) | > 100 µM (inactive) | > 100 µM (inactive) | > 100 µM (inactive) | > 100 µM (inactive) | > 100 µM (inactive) | – | > 100 µM (inactive)
3 | COc1ccc(C2(O)c3ccccc3C(=O)N(C)C2(O)c2ccc(OC)cc2)cc1 (configuration not stated) | 73.1 µM (inactive) | – | 34.3 µM (inactive) | 57.1 µM (inactive) | 0.396 µM (active) | 53.3 µM (inactive) | 54.5 µM (inactive) | 45.9 µM (inactive) | 35.2 µM (inactive) | 16.1 µM (inactive) | 57 µM (inactive) | 25.2 µM (inactive) | 33.9 µM (inactive) | > 100 µM (inactive) | > 100 µM (inactive) | 43.4 µM (inactive) | 34.2 µM (inactive) | 59.4 µM (inactive) | 48.1 µM (inactive) | 32.6 µM (inactive)
4 | CC1(C)N=C2C(=O)c3c([nH]c4ccccc34)[C@]3(C)CCC1CC23 (some centres not stated) | > 6.25 µM (inactive) | > 6.25 µM (inactive) | > 6.25 µM (inactive) | > 6.25 µM (inactive) | > 6.25 µM (inactive) | – | > 6.25 µM (inactive) | > 6.25 µM (inactive) | > 6.25 µM (inactive) | > 6.25 µM (inactive) | > 6.25 µM (inactive) | > 6.25 µM (inactive) | > 6.25 µM (inactive) | > 6.25 µM (inactive) | > 6.25 µM (inactive) | > 6.25 µM (inactive) | > 6.25 µM (inactive) | > 6.25 µM (inactive) | – | > 6.25 µM (inactive)
5 | CC(=O)c1c(C)cn(S(=O)(=O)NC(=O)Nc2nncs2)c1C | > 100 µM (inactive) | > 100 µM (inactive) | > 100 µM (inactive) | > 100 µM (inactive) | > 100 µM (inactive) | > 100 µM (inactive) | > 100 µM (inactive) | > 100 µM (inactive) | > 100 µM (inactive) | > 100 µM (inactive) | > 100 µM (inactive) | > 100 µM (inactive) | > 100 µM (inactive) | > 100 µM (inactive) | – | > 100 µM (inactive) | > 100 µM (inactive) | > 100 µM (inactive) | > 100 µM (inactive) | > 100 µM (inactive)
6 | O=C1c2ccccc2-c2c1c1ccccc1c(=O)n2Cc1ccccc1 | 49.1 µM (inactive) | – | 62.7 µM (inactive) | 56.8 µM (inactive) | 43.5 µM (inactive) | > 100 µM (inactive) | > 100 µM (inactive) | > 100 µM (inactive) | – | 54.3 µM (inactive) | > 100 µM (inactive) | 14.5 µM (inactive) | > 100 µM (inactive) | > 100 µM (inactive) | 57.1 µM (inactive) | > 100 µM (inactive) | > 100 µM (inactive) | 40.7 µM (inactive) | 46.6 µM (inactive) | > 100 µM (inactive)
7 | COc1cc(/C=C\c2ccc(SC)cc2)cc(OC)c1OC | 0.883 µM (active) | 0.467 µM (active) | < 0.01 µM (active) | 0.244 µM (active) | 0.0132 µM (active) | 0.0182 µM (active) | 0.201 µM (active) | 0.381 µM (active) | 0.0171 µM (active) | 0.0133 µM (active) | 0.0128 µM (active) | 10.7 µM (inactive) | < 0.01 µM (active) | 0.0331 µM (active) | < 0.0145 µM (active) | 0.0188 µM (active) | < 0.01 µM (active) | 23.7 µM (inactive) | 0.0227 µM (active) | < 0.0123 µM (active)
